Reference: patent US11571421B2, “GABAA positive allosteric modulator compounds for treatment of itch and/or dermatitis” (NeuroCycle Therapeutics, Inc., priority 2018, dated 2023)
“And” between values parts separate entries of the source, which are not always exact repeats. Identical values can stand only once.

System: Chloroquine (CQ)-Induced Itch Model in Male C57BL/6 Mice
Experiment: Chloroquine Induced Itch Model, AZD7325 (Example 2)
Assay type: in vivo
Protocol: Other GABAA positive allosteric modulators are predicted to have similar effects on pruritic conditions and dermatitis as PF-06372865. […] In this study, the efficacy of AZD7325 was evaluated in the Chloroquine Induced Itch Model in Male C57BL/6 Mice. […]
AZD7325 was weighed into a clean glass container. A 5% 2-hydroxypropyl-β-cyclodextrin was added and the resulting mixture was mixed well using mild vortexing and sonicated for 15-20 minutes to provide a homogeneous suspension.
21 mg of chloroquine phosphate was weighed in a clean glass container. 5.2 mL PBS was added, and the resulting mixture was mixed well using mild vortexing to form the desired strength solution.
The right-side cheek area of all the animals was shaved with animal clippers 1 day prior to the experiment. Animals were randomized into different treatment groups based on body weight to avoid variability in weights across groups one day prior to experiment. Reference formulations and chloroquine phosphate solution were prepared on the day of the experiment.
Animals were dosed per oral with respective treatment group using a dose volume of 10 ml/kg. Times of dosing were recorded. Immediately after compound treatment, animals were kept in a empty transparent chamber (23 cm length×17 cm width) for acclimatization and observation.
Ninety (90) minutes post compound dosing, 50-μl of chloroquine phosphate solution (a 200-μg dose) was injected intracutaneously into the animal's right cheek. Animals were returned to the same chamber for observation. Animals were observed by an observer blind to the treatment group for a period of 30 minutes post chloroquine injection. Total number of bouts of scratching directed at the ipsilateral cheek were recorded for 30 minutes.

[1] = 0.3 mg/kg PO, individual animals
[2] = 10 mg/kg PO, individual animals
[3] = 30 mg/kg PO, individual animals

CCCNC(=O)c1nnc2c(-c3c(F)cccc3OC)cccc2c1N [AZD7325]
Scratching bouts (Nos.) In 30 min, 0-5 min (0.3 mg/kg PO, MEAN, N=6): 1.17 Nos. | Scratching bouts (Nos.) In 30 min, 5-10 min (0.3 mg/kg PO, MEAN, N=6): 11.00 Nos. | Scratching bouts (Nos.) In 30 min, 10-15 min (0.3 mg/kg PO, MEAN, N=6): 17.17 Nos. | Scratching bouts (Nos.) In 30 min, 15-20 min (0.3 mg/kg PO, MEAN, N=6): 24.00 Nos. | Scratching bouts (Nos.) In 30 min, 20-25min (0.3 mg/kg PO, MEAN, N=6): 16.83 Nos. | Scratching bouts (Nos.) In 30 min, 25-30 min (0.3 mg/kg PO, MEAN, N=6): 24.00 Nos. | Total Scratching bouts (0.3 mg/kg PO, MEAN, N=6): 94.17 (Nos.)/30 min | Scratching bouts (Nos.) In 30 min, 0-5 min [1]: 0 Nos. (4×) and 5 Nos. and 2 Nos. | Scratching bouts (Nos.) In 30 min, 5-10 min [1]: 17 Nos. and 0 Nos. (2×) and 9 Nos. and 24 Nos. and 16 Nos. | Scratching bouts (Nos.) In 30 min, 10-15 min [1]: 22 Nos. and 25 Nos. and 10 Nos. and 15 Nos. and 1 Nos. and 30 Nos. | Scratching bouts (Nos.) In 30 min, 15-20 min [1]: 45 Nos. and 30 Nos. and 0 Nos. and 14 Nos. and 28 Nos. and 27 Nos. | Scratching bouts (Nos.) In 30 min, 20-25min [1]: 11 Nos. and 28 Nos. and 18 Nos. and 29 Nos. and 15 Nos. and 0 Nos. | Scratching bouts (Nos.) In 30 min, 25-30 min [1]: 21 Nos. and 15 Nos. (2×) and 31 Nos. and 23 Nos. and 39 Nos. | Total Scratching bouts [1]: 116 (Nos.)/30 min and 98 (Nos.)/30 min and 73 (Nos.)/30 min and 105 (Nos.)/30 min and 61 (Nos.)/30 min and 112 (Nos.)/30 min | Scratching bouts (Nos.) In 30 min, 0-5 min (1 mg/kg PO, MEAN, N=6): 2.00 Nos. | Scratching bouts (Nos.) In 30 min, 5-10 min (1 mg/kg PO, MEAN, N=6): 10.33 Nos. | Scratching bouts (Nos.) In 30 min, 10-15 min (1 mg/kg PO, MEAN, N=6): 15.67 Nos. | Scratching bouts (Nos.) In 30 min, 15-20 min (1 mg/kg PO, MEAN, N=6): 22.33 Nos. | Scratching bouts (Nos.) In 30 min, 20-25min (1 mg/kg PO, MEAN, N=6): 19.17 Nos. | Scratching bouts (Nos.) In 30 min, 25-30 min (1 mg/kg PO, MEAN, N=6): 14.33 Nos. | Total Scratching bouts (1 mg/kg PO, MEAN, N=6): 83.83 (Nos.)/30 min | Scratching bouts (Nos.) In 30 min, 0-5 min (1 mg/kg PO, individual animals): 0 Nos. (2×) and 2 Nos. and 3 Nos. and 6 Nos. and 1 Nos. | Scratching bouts (Nos.) In 30 min, 5-10 min (1 mg/kg PO, individual animals): 1 Nos. and 7 Nos. and 18 Nos. and 36 Nos. and 0 Nos. (2×) | Scratching bouts (Nos.) In 30 min, 10-15 min (1 mg/kg PO, individual animals): 0 Nos. and 15 Nos. and 26 Nos. and 8 Nos. and 21 Nos. and 24 Nos. | Scratching bouts (Nos.) In 30 min, 15-20 min (1 mg/kg PO, individual animals): 30 Nos. and 24 Nos. and 14 Nos. and 7 Nos. and 44 Nos. and 15 Nos. | Scratching bouts (Nos.) In 30 min, 20-25min (1 mg/kg PO, individual animals): 48 Nos. and 38 Nos. and 7 Nos. and 10 Nos. and 12 Nos. and 0 Nos. | Scratching bouts (Nos.) In 30 min, 25-30 min (1 mg/kg PO, individual animals): 0 Nos. and 9 Nos. and 17 Nos. and 4 Nos. and 30 Nos. and 26 Nos. | Total Scratching bouts (1 mg/kg PO, individual animals): 79 (Nos.)/30 min and 95 (Nos.)/30 min and 85 (Nos.)/30 min and 65 (Nos.)/30 min and 113 (Nos.)/30 min and 66 (Nos.)/30 min | Scratching bouts (Nos.) In 30 min, 0-5 min (3 mg/kg PO, MEAN, N=6): 1.50 Nos. | Scratching bouts (Nos.) In 30 min, 5-10 min (3 mg/kg PO, MEAN, N=6): 7.50 Nos. | Scratching bouts (Nos.) In 30 min, 10-15 min (3 mg/kg PO, MEAN, N=6): 16.33 Nos. | Scratching bouts (Nos.) In 30 min, 15-20 min (3 mg/kg PO, MEAN, N=6): 17.17 Nos. | Scratching bouts (Nos.) In 30 min, 20-25min (3 mg/kg PO, MEAN, N=6): 13.33 Nos. | Scratching bouts (Nos.) In 30 min, 25-30 min (3 mg/kg PO, MEAN, N=6): 11.33 Nos. | Total Scratching bouts (3 mg/kg PO, MEAN, N=6): 67.17 (Nos.)/30 min | Scratching bouts (Nos.) In 30 min, 0-5 min (3 mg/kg PO, individual animals): 3 Nos. and 0 Nos. (4×) and 6 Nos. | Scratching bouts (Nos.) In 30 min, 5-10 min (3 mg/kg PO, individual animals): 0 Nos. (3×) and 31 Nos. and 12 Nos. and 2 Nos. | Scratching bouts (Nos.) In 30 min, 10-15 min (3 mg/kg PO, individual animals): 20 Nos. and 22 Nos. and 17 Nos. and 9 Nos. and 14 Nos. and 16 Nos. | Scratching bouts (Nos.) In 30 min, 15-20 min (3 mg/kg PO, individual animals): 18 Nos. and 5 Nos. and 35 Nos. and 26 Nos. and 19 Nos. and 0 Nos. | Scratching bouts (Nos.) In 30 min, 20-25min (3 mg/kg PO, individual animals): 2 Nos. and 32 Nos. and 22 Nos. and 6 Nos. and 10 Nos. and 8 Nos. | Scratching bouts (Nos.) In 30 min, 25-30 min (3 mg/kg PO, individual animals): 8 Nos. (2×) and 19 Nos. and 11 Nos. and 20 Nos. and 2 Nos. | Total Scratching bouts (3 mg/kg PO, individual animals): 51 (Nos.)/30 min and 78 (Nos.)/30 min and 119 (Nos.)/30 min and 64 (Nos.)/30 min and 63 (Nos.)/30 min and 28 (Nos.)/30 min | Scratching bouts (Nos.) In 30 min, 0-5 min (10 mg/kg PO, MEAN, N=6): 0.50 Nos. | Scratching bouts (Nos.) In 30 min, 5-10 min (10 mg/kg PO, MEAN, N=6): 6.17 Nos. | Scratching bouts (Nos.) In 30 min, 10-15 min (10 mg/kg PO, MEAN, N=6): 15.17 Nos. | Scratching bouts (Nos.) In 30 min, 15-20 min (10 mg/kg PO, MEAN, N=6): 12.50 Nos. | Scratching bouts (Nos.) In 30 min, 20-25min (10 mg/kg PO, MEAN, N=6): 13.67 Nos. | Scratching bouts (Nos.) In 30 min, 25-30 min (10 mg/kg PO, MEAN, N=6): 15.17 Nos. | Total Scratching bouts (10 mg/kg PO, MEAN, N=6): 63.17 (Nos.)/30 min | Scratching bouts (Nos.) In 30 min, 0-5 min [2]: 0 Nos. (4×) and 1 Nos. and 2 Nos. | Scratching bouts (Nos.) In 30 min, 5-10 min [2]: 7 Nos. (2×) and 0 Nos. (2×) and 22 Nos. and 1 Nos. | Scratching bouts (Nos.) In 30 min, 10-15 min [2]: 41 Nos. and 11 Nos. and 7 Nos. and 19 Nos. and 0 Nos. and 13 Nos. | Scratching bouts (Nos.) In 30 min, 15-20 min [2]: 9 Nos. and 0 Nos. (2×) and 22 Nos. and 25 Nos. and 19 Nos. | Scratching bouts (Nos.) In 30 min, 20-25min [2]: 0 Nos. (2×) and 10 Nos. and 20 Nos. and 19 Nos. and 33 Nos. | Scratching bouts (Nos.) In 30 min, 25-30 min [2]: 23 Nos. and 37 Nos. and 24 Nos. and 0 Nos. (2×) and 7 Nos. | Total Scratching bouts [2]: 80 (Nos.)/30 min and 65 (Nos.)/30 min and 73 (Nos.)/30 min and 85 (Nos.)/30 min and 61 (Nos.)/30 min and 15 (Nos.)/30 min | Scratching bouts (Nos.) In 30 min, 0-5 min (30 mg/kg PO, MEAN, N=6): 5.17 Nos. | Scratching bouts (Nos.) In 30 min, 5-10 min (30 mg/kg PO, MEAN, N=6): 11.67 Nos. | Scratching bouts (Nos.) In 30 min, 10-15 min (30 mg/kg PO, MEAN, N=6): 7.17 Nos. | Scratching bouts (Nos.) In 30 min, 15-20 min (30 mg/kg PO, MEAN, N=6): 18.33 Nos. | Scratching bouts (Nos.) In 30 min, 20-25min (30 mg/kg PO, MEAN, N=6): 6.17 Nos. | Scratching bouts (Nos.) In 30 min, 25-30 min (30 mg/kg PO, MEAN, N=6): 2.83 Nos. | Total Scratching bouts (30 mg/kg PO, MEAN, N=6): 51.33 (Nos.)/30 min | Scratching bouts (Nos.) In 30 min, 0-5 min [3]: 0 Nos. (3×) and 1 Nos. and 20 Nos. and 10 Nos. | Scratching bouts (Nos.) In 30 min, 5-10 min [3]: 9 Nos. and 15 Nos. and 0 Nos. (2×) and 1 Nos. and 45 Nos. | Scratching bouts (Nos.) In 30 min, 10-15 min [3]: 8 Nos. and 1 Nos. and 22 Nos. and 3 Nos. and 9 Nos. and 0 Nos. | Scratching bouts (Nos.) In 30 min, 15-20 min [3]: 29 Nos. and 0 Nos. and 11 Nos. and 10 Nos. and 47 Nos. and 13 Nos. | Scratching bouts (Nos.) In 30 min, 20-25min [3]: 5 Nos. and 0 Nos. (3×) and 16 Nos. (2×) | Scratching bouts (Nos.) In 30 min, 25-30 min [3]: 0 Nos. (4×) and 12 Nos. and 5 Nos. | Total Scratching bouts [3]: 51 (Nos.)/30 min and 29 (Nos.)/30 min and 69 (Nos.)/30 min and 18 (Nos.)/30 min and 57 (Nos.)/30 min and 84 (Nos.)/30 min | scratching bouts compared to vehicle treatment, significance (at 1, 3, 10 and 30 mg/kg doses): Statistically significant decrease | total number of scratching bouts, dose response (quantified for 30 minutes post CQ injection, 0.3-30 mg/kg PO): dose dependent decrease
